# Measured values taken from article PMC11003488 (Journal of Enzyme Inhibition and Medicinal Chemistry, 2023).
# Legend:
# Experiment in all cases: NCI-60 SRB growth inhibition, one-dose and five-dose
# Type in all cases: cell-based
# CCRF-CEM = conditions: Homo sapiens
# K-562 = conditions: Homo sapiens
# RPMI-8226 = conditions: Homo sapiens
# SR = conditions: Homo sapiens
# A549/ATCC = conditions: Homo sapiens
# EKVX = conditions: Homo sapiens
# HOP-62 = conditions: Homo sapiens
# HOP-92 = conditions: Homo sapiens
# NCI-H226 = conditions: Homo sapiens
# NCI-H23 = conditions: Homo sapiens
# NCI-H322M = conditions: Homo sapiens
# NCI-H460 = conditions: Homo sapiens
# NCI-H522 = conditions: Homo sapiens
# HCC-2998 = conditions: Homo sapiens
# HT29 = conditions: Homo sapiens
# KM12 = conditions: Homo sapiens
# SW-620 = conditions: Homo sapiens
# SF-268 = conditions: Homo sapiens
# SNB-75 = conditions: Homo sapiens
# U251 = conditions: Homo sapiens
# LOX IMVI = conditions: Homo sapiens
# MALME-3M = conditions: Homo sapiens
# M14 = conditions: Homo sapiens
# MDA-MB-435 = conditions: Homo sapiens
# SK-MEL-2 = conditions: Homo sapiens
# SK-MEL-28 = conditions: Homo sapiens
# SK-MEL-5 = conditions: Homo sapiens
# UACC-62 = conditions: Homo sapiens
# OVCAR-8 = conditions: Homo sapiens
# NCI/ADR-RES = conditions: Homo sapiens
# SK-OV-3 = conditions: Homo sapiens
# 786-0 = conditions: Homo sapiens
# A498 = conditions: Homo sapiens
# ACHN = conditions: Homo sapiens
# CAKI-1 = conditions: Homo sapiens
# SN12C = conditions: Homo sapiens
# TK-10 = conditions: Homo sapiens
# PC-3 = conditions: Homo sapiens
# DU-145 = conditions: Homo sapiens
# MCF7 = conditions: Homo sapiens
# BT-549 = conditions: Homo sapiens
# T-47D = conditions: Homo sapiens, T47D
# MDA-MB-468 = conditions: Homo sapiens
# [1] = read-out: percent growth inhibition
compound,measurement,setting,value
"COc1ccc(CNc2cccc(C(=O)/C=C/c3ccc(NC(C)=O)cc3)c2)cc1OC [Compound 5h, (E)-N-(4–(3-(3-((3,4-dimethoxybenzyl)amino)phenyl)-3-oxoprop-1-en-1-yl)phenyl) acetamide]",GI50,CCRF-CEM,2.74 µM
same,inhibition at 10 µM,CCRF-CEM; [1],84.5%
same,GI50,K-562; K562,2.5 µM
same,inhibition at 10 µM,"K-562; K562, read-out: percent growth inhibition",92.2%
same,GI50,RPMI-8226; RPMI-8226,1.79 µM
same,inhibition at 10 µM,"RPMI-8226; RPMI-8226, read-out: percent growth inhibition",112%
same,GI50,SR,1.93 µM
same,inhibition at 10 µM,SR; [1],98.3%
same,GI50,A549/ATCC; A549,23.6 µM
same,inhibition at 10 µM,"A549/ATCC; A549, read-out: percent growth inhibition",77.3%
same,GI50,EKVX,4.09 µM
same,inhibition at 10 µM,EKVX; [1],94.9%
same,GI50,HOP-62; HOP-62,7.25 µM
same,inhibition at 10 µM,"HOP-62; HOP-62, read-out: percent growth inhibition",62.3%
same,GI50,HOP-92; HOP-92,4.02 µM
same,inhibition at 10 µM,"HOP-92; HOP-92, read-out: percent growth inhibition",65.8%
same,GI50,NCI-H226; NCI-H226,12.4 µM
same,inhibition at 10 µM,"NCI-H226; NCI-H226, read-out: percent growth inhibition",21.2%
same,GI50,NCI-H23; NCI-H23,4.26 µM
same,inhibition at 10 µM,"NCI-H23; NCI-H23, read-out: percent growth inhibition",105%
same,GI50,NCI-H322M,13.6 µM
same,inhibition at 10 µM,NCI-H322M; [1],32%
same,GI50,NCI-H460; NCI-H460,2.1 µM
same,inhibition at 10 µM,"NCI-H460; NCI-H460, read-out: percent growth inhibition",143%
same,GI50,NCI-H522; NCI-H522,8.85 µM
same,inhibition at 10 µM,"NCI-H522; NCI-H522, read-out: percent growth inhibition",150%
same,GI50,HCC-2998; HCC 2998,3.3 µM
same,inhibition at 10 µM,"HCC-2998; HCC 2998, read-out: percent growth inhibition",176%
same,GI50,HT29; HT-29,3.46 µM
same,inhibition at 10 µM,"HT29; HT-29, read-out: percent growth inhibition",172%
same,GI50,KM12; KM12,1.94 µM
same,inhibition at 10 µM,"KM12; KM12, read-out: percent growth inhibition",159%
same,GI50,SW-620; SW-620,2 µM
same,inhibition at 10 µM,"SW-620; SW-620, read-out: percent growth inhibition",157%
same,GI50,SF-268; SF-268,3.01 µM
same,inhibition at 10 µM,"SF-268; SF-268, read-out: percent growth inhibition",64%
same,GI50,SNB-75; SNB-75,10.1 µM
same,inhibition at 10 µM,"SNB-75; SNB-75, read-out: percent growth inhibition",62.8%
same,GI50,U251; U-251,2.88 µM
same,inhibition at 10 µM,"U251; U-251, read-out: percent growth inhibition",150%
same,GI50,LOX IMVI,1.8 µM
same,inhibition at 10 µM,LOX IMVI; [1],181%
same,GI50,MALME-3M,3.5 µM
same,inhibition at 10 µM,MALME-3M; [1],151%
same,GI50,M14; M14,1.72 µM
same,inhibition at 10 µM,"M14; M14, read-out: percent growth inhibition",142%
same,GI50,MDA-MB-435; MDA-MB-435,2.22 µM
same,inhibition at 10 µM,"MDA-MB-435; MDA-MB-435, read-out: percent growth inhibition",133%
same,GI50,SK-MEL-2; SK-MEL-2,10.6 µM
same,inhibition at 10 µM,"SK-MEL-2; SK-MEL-2, read-out: percent growth inhibition",53.7%
same,GI50,SK-MEL-28; SK-MEL-28,2.82 µM
same,inhibition at 10 µM,"SK-MEL-28; SK-MEL-28, read-out: percent growth inhibition",108%
same,GI50,SK-MEL-5; SK-MEL-5,4.13 µM
same,inhibition at 10 µM,"SK-MEL-5; SK-MEL-5, read-out: percent growth inhibition",126%
same,GI50,UACC-62; UACC-62,3.9 µM
same,inhibition at 10 µM,"UACC-62; UACC-62, read-out: percent growth inhibition",130%
same,GI50,OVCAR-8; OVCAR-8,2.97 µM
same,inhibition at 10 µM,"OVCAR-8; OVCAR-8, read-out: percent growth inhibition",95.7%
same,GI50,NCI/ADR-RES,2.86 µM
same,GI50,SK-OV-3; SK-OV-3,20 µM
same,inhibition at 10 µM,"SK-OV-3; SK-OV-3, read-out: percent growth inhibition",75.5%
same,GI50,786-0; 786-0,1.57 µM
same,inhibition at 10 µM,"786-0; 786-0, read-out: percent growth inhibition",155%
same,GI50,A498; A498,13.7 µM
same,inhibition at 10 µM,"A498; A498, read-out: percent growth inhibition",11.5%
same,GI50,ACHN,2.07 µM
same,inhibition at 10 µM,ACHN; [1],162%
same,GI50,CAKI-1; CAKI-1,3.15 µM
same,inhibition at 10 µM,"CAKI-1; CAKI-1, read-out: percent growth inhibition",56.4%
same,GI50,SN12C,2.48 µM
same,inhibition at 10 µM,SN12C; [1],135%
same,GI50,TK-10; TK-10,4.09 µM
same,inhibition at 10 µM,"TK-10; TK-10, read-out: percent growth inhibition",60.7%
same,GI50,PC-3; PC-3,2.81 µM
same,inhibition at 10 µM,"PC-3; PC-3, read-out: percent growth inhibition",85%
same,GI50,DU-145; DU-145,4.25 µM
same,inhibition at 10 µM,"DU-145; DU-145, read-out: percent growth inhibition",75.4%
same,GI50,MCF7; MCF7,2.54 µM
same,inhibition at 10 µM,"MCF7; MCF7, read-out: percent growth inhibition",119%
same,GI50,BT-549; BT-549,1.54 µM
same,inhibition at 10 µM,"BT-549; BT-549, read-out: percent growth inhibition",126%
same,GI50,T-47D,5.04 µM
same,inhibition at 10 µM,T-47D; [1],104%
same,GI50,MDA-MB-468; MDA-MB-468,2.44 µM
same,inhibition at 10 µM,"MDA-MB-468; MDA-MB-468, read-out: percent growth inhibition",166%
